Assay results: ChEMBL document CHEMBL4038307, “Influence of a Basic Side Chain on the Properties of Hypoxia-Selective Nitro Analogues of the Duocarmycins: Demonstration of Substantial Anticancer Activity in Combination with Irradiation or Chemotherapy” (J Med Chem, 2017)
Activity calls are given as the source filed them. The calls are words filed in the database; no cut-off is given here.

Assays:
NCI-H1299 = assay: Antitumor activity against human H1299 cells xenografted in CD-1 Foxn1 nude mouse assessed as reduction in colony forming cells at 75 umol/kg, iv treated 5 mins after gamma irradiation measured after 18 hrs by excision assay; type: functional, organism-based
HCT-116 = assay: Antitumor activity against human HCT116 cells xenografted in CD-1 Foxn1 nude mouse assessed as reduction in colony forming cells at 56 umol/kg, iv treated 5 mins after gamma irradiation measured after 18 hrs by excision assay; type: functional, organism-based
CWR22R = assay: Antitumor activity against human 22Rv1 cells xenografted in CD-1 Foxn1 nude mouse assessed as reduction in colony forming cells under hypoxic condition at 30 umol/kg, iv treated 5 mins after gamma irradiation measured after 18 hrs by excision assay; type: functional, organism-based
SiHa [1] = assay: Antitumor activity against human SiHa cells xenografted in CD-1 Foxn1 nude mouse assessed as log reduction in colony forming cells under hypoxic condition at 42 umol/kg, iv treated 5 mins after gamma irradiation measured after 18 hrs by excision assay; type: functional
NCI-H460 [2] = assay: Antitumor activity against human H460 cells xenografted in CD-1 Foxn1 nude mouse assessed as reduction in colony forming cells under hypoxic condition at 13.3 umol/kg, iv treated 5 mins after gamma irradiation measured after 18 hrs by excision assay; type: functional, organism-based
HT-29 [3] = assay: Cytotoxicity against human HT-29 cells incubated for 4 hrs under hypoxic condition measured after 5 days by SRB assay; type: functional, cell-based
HT-29 [4] = assay: Cytotoxicity against human HT-29 cells incubated for 4 hrs under oxic condition measured after 5 days by SRB assay; type: functional, cell-based
HT-29 [5] = assay: Ratio of IC50 for human HT-29 cells under oxic condition to IC50 for human HT-29 cells under hypoxic condition; type: functional
SiHa [6] = assay: Ratio of IC50 for human SiHa cells under oxic condition to IC50 for human SiHa cells under hypoxic condition; type: functional
SiHa [7] = assay: Cytotoxicity against human SiHa cells incubated for 4 hrs under hypoxic condition measured after 5 days by SRB assay; type: functional, cell-based
SiHa [8] = assay: Cytotoxicity against human SiHa cells incubated for 4 hrs under oxic condition measured after 5 days by SRB assay; type: functional, cell-based
NCI-H460 [9] = assay: Antitumor activity against human H460 cells xenografted in CD-1 Foxn1 nude mouse assessed as reduction in colony forming cells under hypoxic condition at 75 umol/kg, iv treated 5 mins after gamma irradiation measured after 18 hrs by excision assay; type: functional, organism-based
NCI-H460 [10] = assay: Antitumor activity against human H460 cells xenografted in CD-1 Foxn1 nude mouse assessed as log reduction in colony forming cells under hypoxic condition at 56 umol/kg, iv treated 5 mins after gamma irradiation measured after 18 hrs by excision assay; type: functional
Mus musculus [11] = assay: Toxicity in CD-1 Foxn1 nude mouse xenografted with human SiHa cells assessed as death at 13 umol/kg, iv; settings: in vivo
Mus musculus [12] = assay: Toxicity in CD-1 Foxn1 nude mouse xenografted with human H460 cells assessed as death at 13 umol/kg, iv; settings: in vivo
NCI-H460 [13] = assay: Antitumor activity against human H460 cells xenografted in CD-1 Foxn1 nude mouse assessed as reduction in colony forming cells under hypoxic condition at 23.7 umol/kg, iv treated 5 mins after gamma irradiation measured after 18 hrs by excision assay; type: functional, organism-based
SiHa [14] = assay: Antitumor activity against human SiHa cells xenografted in CD-1 Foxn1 nude mouse assessed as reduction in colony forming cells under hypoxic condition at 23.7 umol/kg, iv treated 5 mins after gamma irradiation measured after 18 hrs by excision assay; type: functional, organism-based
Mus musculus [15] = assay: Toxicity in CD-1 Foxn1 nude mouse xenografted with human SiHa cells assessed as death at 75 umol/kg, iv; settings: in vivo
Mus musculus [16] = assay: Toxicity in CD-1 Foxn1 nude mouse xenografted with human H460 cells assessed as death at 75 umol/kg, iv; settings: in vivo

Compound	Activity (HT-29 [3])	Activity (HT-29 [4])	Ratio IC50 (HT-29 [5])	Ratio IC50 (SiHa [6])	Activity (SiHa [7])	Activity (SiHa [8])	other results
CN(C)CCCOc1ccc2[nH]c(C(=O)N3CC(CCl)c4c3cc([N+](=O)[O-])c3cc(S(=O)(=O)NCCOP(=O)(O)O)ccc43)cc2c1 (stereo not given)	–	–	–	–	–	–	Activity (NCI-H1299): Active; Activity (HCT-116): Active; Activity (CWR22R): Active
O=C(c1ccc(OCCN2CCOCC2)cc1)N1CC(CCl)c2c1cc([N+](=O)[O-])c1cc(S(=O)(=O)NCCOP(=O)(O)O)ccc21 (stereo not given)	–	–	–	–	–	–	Activity (SiHa [1]): Active; Activity (NCI-H460 [2]): inactive
CN(C)CC(=O)Nc1ccc2[nH]c(C(=O)N3CC(CCl)c4c3cc(N)c3cc(S(=O)(=O)NCCO)ccc43)cc2c1 (stereo not given)	Active	Active	1	1	Active	Active	–
COc1cc2cc(C(=O)N3CC(CCl)c4c3cc(N)c3cc(S(=O)(=O)NCCO)ccc43)[nH]c2c(OC)c1OC (stereo not given)	Active	Active	1	1	Active	Active	–
O=C(NCCOP(=O)(O)O)c1ccc2c3c(cc([N+](=O)[O-])c2c1)N(C(=O)/C=C/c1ccc(OCCN2CCOCC2)cc1)CC3CCl (stereo not given)	–	–	–	–	–	–	Activity (SiHa [1]): Active; Activity (NCI-H460 [9]): Active
O=C(/C=C/c1ccc(OCCCN2CCOCC2)cc1)N1CC(CCl)c2c1cc([N+](=O)[O-])c1cc(S(=O)(=O)NCCOP(=O)(O)O)ccc21 (stereo not given)	–	–	–	–	–	–	Activity (SiHa [1]): Active; Activity (NCI-H460 [9]): Active
Nc1cc2c(c3ccc(S(=O)(=O)NCCO)cc13)C(CCl)CN2C(=O)/C=C/c1ccc(OCCCN2CCOCC2)cc1 (stereo not given)	Active	Active	1	1	Active	Active	–
Nc1cc2c(c3ccc(S(=O)(=O)NCCO)cc13)C(CCl)CN2C(=O)c1ccc(OCCN2CCOCC2)cc1 (stereo not given)	Active	Active	1	1	Active	Active	–
Nc1cc2c(c3ccc(S(=O)(=O)NCCO)cc13)C(CCl)CN2C(=O)/C=C/c1ccc(OCCN2CCOCC2)cc1 (stereo not given)	Active	Active	1	1	Active	Active	–
CN(C)CCCOc1ccc2[nH]c(C(=O)N3CC(CCl)c4c3cc(N)c3cc(S(=O)(=O)NCCO)ccc43)cc2c1 (stereo not given)	Active	Active	1	1	Active	Active	–
CCN(CC)CCOc1ccc2[nH]c(C(=O)N3CC(CCl)c4c3cc([N+](=O)[O-])c3cc(S(=O)(=O)NCCO)ccc43)cc2c1 (stereo not given)	–	–	27 - 68	27 - 68	–	–	–
CN(C)CCOc1ccc2[nH]c(C(=O)N3CC(CCl)c4c3cc(N)c3cc(S(=O)(=O)NCCO)ccc43)cc2c1 (stereo not given)	Active	Active	1	1	Active	Active	–
O=C(/C=C/c1ccc(OCCN2CCOCC2)cc1)N1CC(CCl)c2c1cc([N+](=O)[O-])c1cc(S(=O)(=O)NCCOP(=O)(O)O)ccc21 (stereo not given)	–	–	–	–	–	–	Activity (SiHa [1]): Active; Activity (NCI-H460 [9]): Active; Activity (NCI-H460 [10]): >1
CN(C)CCOc1ccc2[nH]c(C(=O)N3CC(CCl)c4c3cc([N+](=O)[O-])c3cc(S(=O)(=O)NCCO)ccc43)cc2c1 (stereo not given)	Active	Active	–	–	–	–	–
CN(C)Cc1ccc2[nH]c(C(=O)N3CC(CCl)c4c3cc(N)c3cc(S(=O)(=O)NCCO)ccc43)cc2c1 (stereo not given)	Active	Active	1	1	Active	Active	–
CN(C)CCC(=O)Nc1ccc2[nH]c(C(=O)N3CC(CCl)c4c3cc(N)c3cc(S(=O)(=O)NCCO)ccc43)cc2c1 (stereo not given)	Active	Active	1	1	Active	Active	–
CN(C)CCOc1ccc2[nH]c(C(=O)N3CC(CCl)c4c3cc([N+](=O)[O-])c3cc(C(=O)NCCO)ccc43)cc2c1 (stereo not given)	Active	Active	–	–	–	–	–

Compound	Activity (HT-29 [3])	Activity (HT-29 [4])	Ratio IC50 (HT-29 [5])	Ratio IC50 (SiHa [6])	Activity (SiHa [7])	Activity (SiHa [8])	other results
CN(C)CCC(=O)Nc1ccc2[nH]c(C(=O)N3CC(CCl)c4c3cc([N+](=O)[O-])c3cc(S(=O)(=O)NCCOP(=O)(O)O)ccc43)cc2c1 (stereo not given)	–	–	–	–	–	–	Activity (Mus musculus [11]): Toxic; Activity (Mus musculus [12]): Toxic
Nc1cc2c(c3ccc(S(=O)(=O)NCCO)cc13)C(CCl)CN2C(=O)CCN1CCOCC1 (stereo not given)	Active	Active	1	1	Active	Active	–
Nc1cc2c(c3ccc(S(=O)(=O)NCCO)cc13)C(CCl)CN2C(=O)c1cc2cc(OCCCN3CCOCC3)ccc2[nH]1 (stereo not given)	Active	Active	1	1	Active	Active	–
CN(C)c1ccc2[nH]c(C(=O)N3CC(CCl)c4c3cc(N)c3cc(S(=O)(=O)NCCO)ccc43)cc2c1 (stereo not given)	Active	Active	1	1	Active	Active	–
CCN(CC)CCOc1ccc2[nH]c(C(=O)N3CC(CCl)c4c3cc([N+](=O)[O-])c3cc(S(=O)(=O)NCCOP(=O)(O)O)ccc43)cc2c1 (stereo not given)	–	–	–	–	–	–	Activity (NCI-H460 [13]): inactive; Activity (SiHa [14]): Active
O=C(CCN1CCOCC1)N1CC(CCl)c2c1cc([N+](=O)[O-])c1cc(S(=O)(=O)NCCOP(=O)(O)O)ccc21 (stereo not given)	–	–	–	–	–	–	Activity (SiHa [1]): Active; Activity (NCI-H460 [9]): inactive
CCN(CC)CCOc1ccc2[nH]c(C(=O)N3CC(CCl)c4c3cc(N)c3cc(S(=O)(=O)NCCO)ccc43)cc2c1 (stereo not given)	Active	Active	1	1	Active	Active	–
CN(C)Cc1ccc2[nH]c(C(=O)N3CC(CCl)c4c3cc([N+](=O)[O-])c3cc(S(=O)(=O)NCCO)ccc43)cc2c1 (stereo not given)	–	–	27 - 68	27 - 68	–	–	–
CN(C)CC(=O)Nc1ccc2[nH]c(C(=O)N3CC(CCl)c4c3cc([N+](=O)[O-])c3cc(S(=O)(=O)NCCOP(=O)(O)O)ccc43)cc2c1 (stereo not given)	–	–	–	–	–	–	Activity (Mus musculus [15]): Non-Toxic; Activity (Mus musculus [16]): Non-Toxic
O=C(c1cc2cc(OCCCN3CCOCC3)ccc2[nH]1)N1CC(CCl)c2c1cc([N+](=O)[O-])c1cc(S(=O)(=O)NCCO)ccc21 (stereo not given)	inactive	–	–	–	inactive	–	–
O=C(c1cc2cc(OCCCN3CCOCC3)ccc2[nH]1)N1CC(CCl)c2c1cc([N+](=O)[O-])c1cc(S(=O)(=O)NCCOP(=O)(O)O)ccc21 (stereo not given)	–	–	–	–	–	–	Activity (SiHa [1]): >1; Activity (NCI-H460 [9]): Active; Activity (NCI-H1299): Active; Activity (HCT-116): Active; Activity (CWR22R): Active
CN(C)Cc1ccc2[nH]c(C(=O)N3CC(CCl)c4c3cc([N+](=O)[O-])c3cc(S(=O)(=O)NCCOP(=O)(O)O)ccc43)cc2c1 (stereo not given)	–	–	–	–	–	–	Activity (SiHa [1]): Active; Activity (NCI-H460 [9]): inactive
O=C(c1cc2cc(OCCN3CCOCC3)ccc2[nH]1)N1CC(CCl)c2c1cc([N+](=O)[O-])c1cc(S(=O)(=O)NCCO)ccc21 (stereo not given)	inactive	–	–	–	inactive	–	–
O=C(NCCOP(=O)(O)O)c1ccc2c3c(cc([N+](=O)[O-])c2c1)N(C(=O)c1cc2cc(OCCN4CCOCC4)ccc2[nH]1)CC3CCl (stereo not given)	–	–	–	–	–	–	Activity (SiHa [1]): >1
CN(C)CCCOc1ccc2[nH]c(C(=O)N3CC(CCl)c4c3cc([N+](=O)[O-])c3cc(S(=O)(=O)NCCO)ccc43)cc2c1 (stereo not given)	–	–	27 - 68	27 - 68	–	–	–
CN(C)CCOc1ccc2[nH]c(C(=O)N3CC(CCl)c4c3cc([N+](=O)[O-])c3cc(C(=O)NCCOP(=O)(O)O)ccc43)cc2c1 (stereo not given)	–	–	–	–	–	–	Activity (SiHa [1]): Active; Activity (NCI-H1299): Active; Activity (HCT-116): Active; Activity (CWR22R): Active
Nc1cc2c(c3ccc(S(=O)(=O)NCCO)cc13)C(CCl)CN2C(=O)c1cc2cc(OCCN3CCOCC3)ccc2[nH]1 (stereo not given)	Active	Active	1	1	Active	Active	–
